# Source: the OPERA property sets (Mansouri et al. 2018)
SMILES,logP,solubility
CCCCCOC(=O)c1cccnc1,2.55,–
CCn1cc(C(=O)O)c(=O)c2cc(F)c(N3CCNC(C)C3)cc21 (centres undefined),0.34,–
Cc1cc(Cl)ccc1OCC(=O)OCCCCCC(C)C,6.7,–
CCCN(CCOc1c(Cl)cc(Cl)cc1Cl)C(=O)n1ccnc1,4.1,–
CCc1ccc2cc3ccccc3cc2c1,–,0.00013 mM
CCOC(=O)CCn1nnc2ccccc21,1.6,–
NC(=S)NN=Cc1ccc([N+](=O)[O-])o1,1.64,–
CNC(=O)CCc1ccccc1,1.17,–
COP(=S)(OC)Oc1ccc(C#N)cc1,2.71,–
C=CCN(CC=C)CC=C,–,18.2 mM
CC(C)CC(=O)Oc1ccccc1,3.18,–
Clc1cc2c(Cl)c(Cl)c(Cl)c(Cl)c2cc1Cl,7.7,–
O=P(N1CCCC1)(N1CCCC1)N1CCCC1,1.67,–
CCOC(=O)COc1cccc2ccccc12,2.9,–
O=P(OCCCl)(OCCCl)OCCCl,–,24.5 mM
C1=C(c2ccccc2)CCNC1,1.99,–
CCCCCCOCCO,1.86,–
CC(C)NC1=NC(=O)C(=Cc2ccc([N+](=O)[O-])o2)S1,1.29,–
CC(C)C1(C)N=C(c2ncccc2C(=O)O)NC1=O (centres undefined),0.22,–
c1ccc2nc3c4ccccc4c4ccccc4c3cc2c1,5.66,–
CCOC(=O)OCn1ncc2c(O)ncnc21,0.21,–
Cc1ccc(C)c2c(C)cccc12,4.9,–
COc1ccc2cc(CCC(C)=O)ccc2c1,3.08,–
Cc1ccc(C(C)C)c(OCCN(C)C)c1,3.79,–
CCCCCOC(=O)c1cc(=O)[nH]c(=O)[nH]1,1.62,–
Cc1cn([C@H]2CC[C@@H](CO)O2)c(=O)[nH]c1=S,0.44,–

SMILES,logP,solubility
CN1C(=O)C(O)CC1c1cccnc1 (centres undefined),-1.45,–
CC(=O)Nc1ccc(C(=O)O)c(O)c1,1.62,–
COC1=CC(=O)C(OC)=C(OC)C1=O,0.22,–
Cc1cc(C)c(NC(=O)CN(CC(=O)O)CC(=O)O)c(C)c1Br,0.11,–
CC(=O)Nc1ccc2c(c1)Cc1cc([N+](=O)[O-])ccc1-2,3.08,–
COc1ncnc2c1ncn2C1OC(COC(=O)c2ccccc2)C(O)C1OC(=O)c1ccccc1 (centres undefined),3.39,–
CCN1CCC(CNC(=O)c2cc(S(N)(=O)=O)c(N)cc2OC)C1 (centres undefined),0.66,–
CCNc1nc(NC(C)(C)C)nc(OC)n1,3.1,–
Brc1cc(Br)c(Oc2cc(Br)c(Br)c(Br)c2)cc1Br,7.4,–
NCCc1nc(-c2ccccc2)cs1,2.22,–
N#CC(C#N)=Cc1ccc(I)o1,2.42,–
Clc1cc(Cl)c2cc(Cl)ccc2c1,5.35,0.000278 mM
CCCCC[C@H](O)/C=C/[C@@H]1[C@@H](C/C=C\CCCC(=O)O)[C@@H](O)C[C@H]1O,4.39,–
O=c1nc[nH]c2c1ncn2[C@@H]1O[C@H](CO)C[C@@H]1F,-1.21,–
NS(=O)(=O)c1cc2c(cc1Cl)NC(C1CC3C=CC1C3)NS2(=O)=O (centres undefined),1.95,–
O=C(O)CCOc1cccc2ccccc12,3,–
O=[N+]([O-])c1c2ccccc2cc2ccccc12,4.78,–
NS(=O)(=O)c1nn2c(=Nc3cccc(F)c3)snc2s1,3.06,–
CCOC(=O)c1ccccc1O,2.95,–
O=C(CS(=O)(=O)c1ccccc1)c1ccc(Cl)cc1,2.69,–
Nc1cc2ccccc2cc1N,1.54,–
CCN(CC)P(=O)(N(CC)CC)N1CCCC1,2.39,–
CC(C)CCCCCCCOP(=O)(Oc1ccccc1)Oc1ccccc1,5.44,–
COC(=O)[C@@H](N)Cc1ccc(O)c(O)c1,-0.21,–
CC(C)(O)C(=O)Nc1ccc([N+](=O)[O-])c(C(F)(F)F)c1,2.7,–
O=C(O)C1C2CCC(O2)C1C(=O)O (centres undefined),1.91,–

SMILES,logP,solubility
OCc1cccc(I)c1,2.55,–
CC(=O)OCn1ncc2c(O)ncnc21,-0.35,–
OC(CN1C2CCOCC21)Cn1ccnc1 (centres undefined),0.07,–
N#CCCl,–,1320 mM
COCOCCn1cnc2c(=N)n(C)c(=O)[nH]c21,-1.52,–
CSc1nc(N)nc(C(Cl)(Cl)Cl)n1,3.12,–
CC(C)(C)OCCO,0.39,–
COC1=C(OC)C(=O)C=CC1=O,0.34,–
COc1ccc2c(c1)OCC1(O)c3cc4c(cc3OC21)OCO4 (centres undefined),2.58,–
COC1=CC(=O)C=C(OC)C1=O,-0.06,–
CC(=O)N(C)S(=O)(=O)c1ccc(C)cc1,1.73,–
OCCOc1cccc2ccccc12,2.5,–
COc1cc(S(C)=O)ccc1-c1cn2cccnc2n1 (centres undefined),0.63,–
"CC(C)(C)[C@@H](O)[C@@H](Cc1ccc(Cl)cc1)n1cncn1 (single isomer, unassigned)",3.2,–
O=C1c2ccccc2C(=O)C1C(=O)C(c1ccccc1)c1ccccc1,4.27,–
N#Cc1cc(-c2ccncc2)cnc1Cl,1.74,–
CCCCSP(=O)(SCCCC)SCCCC,5.7,–
N#CCCCCCCCCC#N,1.75,–
C=C(C)C(N)=O,-1.11,–
CCOC1OC2OC3(C)CC(O)C4C(C)CCC(C1C)C24OO3 (centres undefined),2.7,–
OC(CN1C2CCCCC21)Cn1ccnc1 (centres undefined),1.07,–
COc1c(Cl)cc(Cl)cc1Cl,4.11,–
Oc1cccc2ncccc12,1.85,–
c1ccc(CNc2[nH]cnc3ncnc2-3)cc1,1.57,–
Cc1cn(C2OC(CO)CC2F)c(=O)[nH]c1=O (centres undefined),-0.44,–
N[C@@H](Cc1ccc(O)c(O)c1)C(=O)OCCc1ccccc1,1.76,–
